We go through twelve compounds from BindingDB's records for doi:10.7270/Q25B013C (The Scripps Research Institute Molecular Screening Center, 2014).

The test deals with T1, Disintegrin and metalloproteinase domain-containing protein 10 (Homo sapiens, UniProt O14672).
T1 sequence (O14672 whole entry): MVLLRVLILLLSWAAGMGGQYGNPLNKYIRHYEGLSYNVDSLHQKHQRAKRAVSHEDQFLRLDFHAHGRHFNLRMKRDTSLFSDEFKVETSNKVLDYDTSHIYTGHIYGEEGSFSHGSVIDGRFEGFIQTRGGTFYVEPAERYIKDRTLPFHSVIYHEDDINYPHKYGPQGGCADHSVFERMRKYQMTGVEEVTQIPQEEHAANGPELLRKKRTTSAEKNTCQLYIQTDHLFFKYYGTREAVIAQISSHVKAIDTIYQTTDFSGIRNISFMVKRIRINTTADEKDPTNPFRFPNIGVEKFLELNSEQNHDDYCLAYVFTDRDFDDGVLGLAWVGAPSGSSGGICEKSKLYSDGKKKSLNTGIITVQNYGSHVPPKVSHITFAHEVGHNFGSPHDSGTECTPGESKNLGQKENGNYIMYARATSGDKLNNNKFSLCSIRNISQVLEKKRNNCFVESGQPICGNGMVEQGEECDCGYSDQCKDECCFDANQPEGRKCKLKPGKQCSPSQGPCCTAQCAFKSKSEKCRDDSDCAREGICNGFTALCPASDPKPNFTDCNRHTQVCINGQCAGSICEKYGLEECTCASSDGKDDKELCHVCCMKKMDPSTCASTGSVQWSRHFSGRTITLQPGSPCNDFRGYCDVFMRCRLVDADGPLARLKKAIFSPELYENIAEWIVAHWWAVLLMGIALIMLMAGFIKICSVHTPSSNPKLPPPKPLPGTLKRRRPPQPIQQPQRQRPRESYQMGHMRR
Kind of test: ADAM10 protease inhibitors, dose response, selectivity assay for ADAM17 exosite inhibitor project, biochemical, FRET peptide substrate, recombinant human ADAM10 (AID 743259).
Consider `CCOc1ccc(NC(=O)Cc2sc(=O)n(-c3ccccc3)c2O)cc1`, for which the IC50 (commonly the concentration needed to halve the response being measured) worked out at 37.7 µM.

In the case of `Cn1c(-c2sccc2OCc2ccc(Cl)cc2Cl)n[nH]c1=S`, the IC50 worked out at 11.1 µM.

For `O=C(Cc1sc(=O)n(-c2ccccc2)c1O)Nc1ccccc1` [2-(2,4-diketo-3-phenyl-thiazolidin-5-yl)-N-phenyl-acetamide], the IC50 is 47.8 µM.

Regarding `COc1cccc(C2c3oc(CO)cc(=O)c3OC(=N)C2C#N)c1` (configuration not stated) [2-Amino-6-hydroxymethyl-4-(3-methoxy-phenyl)-8-oxo-4,8-dihydro-pyrano[3,2-b]pyran-3-carbonitrile], the IC50 worked out at 69.5 µM. In the case of `COc1ccc(NC(=O)c2oc3ccccc3c2NC(=O)C(C)(C)C)cc1` [3-(2,2-dimethylpropanoylamino)-N-(4-methoxyphenyl)-1-benzofuran-2-carboxamide], the IC50 was 69.5 µM. Under `CCOc1cc(C(c2c(C)[nH][nH]c2=O)c2c(C)[nH][nH]c2=O)ccc1O` [4-[(3-ethoxy-4-hydroxyphenyl)-(3-methyl-5-oxo-1,2-dihydropyrazol-4-yl)methyl]-5-methyl-1,2-dihydropyrazol-3-one] stands 2.58 µM; under `Cc1cccc(NNC2=c3cc(Br)ccc3=NC2=O)c1` [5-bromo-3-[2-(3-methylphenyl)hydrazinyl]indol-2-one], 69.5 µM. `CC1CCCN(CCCNC(=O)c2coc3nc4ccccc4nc23)C1` (configuration not stated) [MLS000046706]: the IC50 turned out to be 28.5 µM. With `O=C1OCCN1C(=O)C1=[N+](c2ccc(Br)cc2)N[C-](c2ccccc2)[C@H]1c1ccc([N+](=O)[O-])cc1` [SMR000327268] the figure was 69.5 µM; with `CC(=NNC(=N)Sc1cc(O)n(-c2ccc(Br)cc2)c1O)c1cccs1` [[1-(4-bromophenyl)-2,5-bis(oxidanylidene)pyrrolidin-3-yl] N''-(1-thiophen-2-ylethylideneamino)carbamimidothioate], 32.5 µM. Under `CC(=NNC(=N)Sc1cc(O)n(-c2ccccc2)c1O)c1cccs1` [[2,5-bis(oxidanylidene)-1-phenyl-pyrrolidin-3-yl] N'-[(E)-1-thiophen-2-ylethylideneamino]carbamimidothioate] stands 9.95 µM; under `COC(=O)c1cccc(Cn2c(Cl)c(CN=Nc3ccccc3C)sc2=O)c1` [methyl 3-[[4-chloro-5-[[(2-methylphenyl)hydrazinylidene]methyl]-2-oxo-1,3-thiazol-3-yl]methyl]benzoate], 69.5 µM.
